We go through 4 compounds from ChEMBL document CHEMBL1201862, “PubChem BioAssay data set” (2004).

Assay [1] has as its target Delta-type opioid receptor (Homo sapiens, UniProt P41143). Put plainly: Counterscreen for agonists of heterodimerization of the mu 1 (OPRM1) and delta 1 (OPRD1) opioid receptors: Luminescence-based cell-based high throughput dose response assay to identify agonists of OPRD1 homodimerization. [Related pubchem assays (depositor defined):AID504326, AID504355, AID504692, AID504904, AID504905]. Type of assay: functional. In general terms: The purpose of a counterscreen is to sort out artefacts and off-target activity.

For assay [2], the target named is Mu-type opioid receptor (Homo sapiens, UniProt P35372). Put plainly: Counterscreen for agonists of heterodimerization of the mu 1 (OPRM1) and delta 1 (OPRD1) opioid receptors: Luminescence-based cell-based high throughput dose response assay to identify agonists of OPRM1 homodimerization. In kind it is functional.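 Also: U2OS cells expressing OPRM1 and beta-arrestin as split beta-galactosidase partners.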
Assay [3] deals with 5-hydroxytryptamine receptor 5A (Homo sapiens, UniProt P47898). Nature of the assay: Counterscreen for agonists of OPRM1-OPRD1 heterodimerization: luminescence-based cell-based high throughput dose response assay to identify agonists of 5-hydroxytryptamine (serotonin) 5A receptor (HTR5A). [Related pubchem assays (depositor defined):AID504326, AID504355, AID504692, AID504904, AID504905]. In kind it is functional.

Assay [4] has as its system HEK293. Nature of the assay: cells. To be noted: Homo sapiens.
Assay [5] deals with HEK293. Nature of the assay: cells. To be noted: Homo sapiens. The source holds these as a separate data set.
The nature of assay [6]: viability of PTEN-deleted HCT116 cells – cell-based, HCT116 PTEN knockout, dose response (AID 1047).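 Also: HCT116 colon tumor cells with PTEN knocked out; cells exposed to compound for 60 hours before readout; potency for loss of cell viability measured by luminescence.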 In kind it is functional.
Assay [7] in a line: viability loss of HMLE_sh_eGFP cells – cell-based, luminescence, counter-screen for HMLE_sh_ECad selective toxicity project, dose response (AID 463074).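 Also: HMLE human mammary epithelial cells expressing control shRNA against eGFP.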 In kind it is functional, Homo sapiens.
Assay [8] is described as follows: Luminescence Cell-Based Dose Retest to Confirm Inhibitors of Cancer Stem Cells. [Related pubchem assays (depositor defined):AID2717, AID2721]. In kind it is functional. To be noted: Homo sapiens.
Assay [9] is described as follows: viability of HCT116 lacking mutant beta-catenin – cell-based, human colon tumor, dose response (AID 1045).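 Also: HCT116 colon tumor cells with beta catenin knocked out; cells exposed to compound for 60 hours.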 Type of assay: functional.
In assay [10] the test system is BJ. Put plainly: cells. Type of assay: functional, cell-based. To be noted: Homo sapiens.
The nature of assay [11]: A549 cell cytotoxicity, dose response, cytotoxicity control, plate reader, cherry-pick, antagonist series (AID 743412). In kind it is functional, cell-based.
Assay [12] in a line: HEK-293T viability loss, compound-treated – cell-based, uHTS hits, cytotoxicity control for B/T-cell NF-kB inhibitor project, dose response (AID 489019).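 Also: IC50 reflects cytotoxicity as loss of cell viability.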 In kind it is functional.
Assay [13] is described as follows: alpha-synuclein stem-loop luciferase translation blockers – H4 neuroglioma cells, luminescence, confirmation (AID 1988). In kind it is functional, cell-based.
The subject of assay [14] is BJ. Put plainly: BJ-TERT-LT-ST fibroblast viability loss – cell-based, RAS-independent, luminescence, dose response (AID 1935).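 Also: BJ fibroblasts immortalized with TERT plus LT and ST oncogenes.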 To be noted: Homo sapiens. Type of assay: functional.
Assay [15] deals with Jurkat. Put plainly: blockers of NF-kB activation in T cells – Jurkat, luciferase reporter, luminescence, B- and T-cell, dose response (AID 489004).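 Also: NF-kB luciferase reporter Jurkat cells stimulated with PMA plus ionomycin.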 To be noted: Homo sapiens. Type of assay: functional, cell-based. (In general: Reporter assays use an easily measured gene product as a stand-in for the process of interest.)
Assay [16] in a line: blockade of melanocortin 4 receptor signaling – cell-based, plate reader, cherry pick, counter-screen for LGR2 antagonist project, dose response (AID 743444).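 Also: transfected HEK 293 cells stimulated with alpha-MSH peptide; potency of inhibitors of the alpha-MSH evoked signal.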 In kind it is functional.
The nature of assay [17]: alpha-synuclein stem-loop translation blockers – luminescence, H4 neuroglioblastoma cells, dose confirmation, confirmation (AID 2454).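 Also: H4 neuroglioblastoma cells carrying an alpha-synuclein 5'UTR luciferase reporter; potency for inhibition of the luciferase signal.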 In kind it is functional, cell-based.
A short description of assay [18]: toxicity toward HepG2 liver cells – cell-based, plate reader, cherry-pick, antagonist series, cytotoxicity control, dose response (AID 743416). Type of assay: functional.
Assay [19] can be described thus: DRD fibroblast viability loss – cell-based, non-viral oncogenic, luminescence, dose response (AID 1934). To be noted: Homo sapiens. In kind it is functional.
Assay [20] can be described thus: cells. In kind it is functional, cell-based.
Assay [21] can be described thus: luciferase reporter signal suppression in cells – H4 neuroglioma cells, luminescence, dose response (AID 1990). Type of assay: functional, cell-based.
In assay [22] the test system is BJ. Nature of the assay: growth inhibition of engineered Ras-driven BJ cells – cell-based, alamar blue fluorescence, cherrypicked samples, dose response (AID 2631).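 Also: confirmatory dose-response assay in RAS-dependent BJ fibroblasts engineered with TERT, LT and ST, with cytotoxicity read by fluorescence.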 Type of assay: functional. As to conditions: Homo sapiens. On the technique in general: Resazurin is reduced to fluorescent resorufin, in cell work by metabolically active cells.
Assay [23] is described as follows: viability loss in HEK293 cells – cell-based, plate reader, cherry-picked samples, cytotoxicity control, dose response (AID 743446). Type of assay: functional.
A short description of assay [24]: blockers of bursicon-stimulated LGR2 cAMP reporter – cell-based, HEK293, CRE-luciferase reporter, cherry pick, set 2, dose response (AID 743343).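 Also: transfected cells were stimulated with diluted bursicon conditioned medium after compound addition.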 Type of assay: functional.
For assay [25], the target named is T1, Heat shock factor protein 1 (Mus musculus, UniProt P38532).
T1 sequence (P38532 whole entry): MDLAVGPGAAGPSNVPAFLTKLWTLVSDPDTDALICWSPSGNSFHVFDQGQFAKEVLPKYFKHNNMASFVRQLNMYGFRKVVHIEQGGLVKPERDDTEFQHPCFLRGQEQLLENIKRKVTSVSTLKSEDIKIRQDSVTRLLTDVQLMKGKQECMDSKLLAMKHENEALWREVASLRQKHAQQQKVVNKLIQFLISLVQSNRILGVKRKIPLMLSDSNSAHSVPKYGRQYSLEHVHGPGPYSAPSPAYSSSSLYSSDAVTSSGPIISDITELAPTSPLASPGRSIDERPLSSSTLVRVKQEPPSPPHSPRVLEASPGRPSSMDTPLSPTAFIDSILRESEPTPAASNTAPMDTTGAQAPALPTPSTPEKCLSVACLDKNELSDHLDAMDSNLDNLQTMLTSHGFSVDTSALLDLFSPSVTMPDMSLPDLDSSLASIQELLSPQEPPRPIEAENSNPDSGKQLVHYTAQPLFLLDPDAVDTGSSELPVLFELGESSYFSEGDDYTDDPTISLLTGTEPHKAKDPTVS
Nature of the assay: decrease of HSF1-responsive luciferase luminescence – cell-based, NIH3T3, dose retest, confirmation (AID 2382).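 Also: NIH3T3 fibroblasts with HSF1-driven luciferase reporter stressed by proteasome inhibitor MG132; luminescence from HSF1-driven luciferase expression after 8 hours of MG132 stress.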 In kind it is functional.

Assay [26] in a line: luciferase reporter signal reduction – luminescence, H4-C neuroglioblastoma cells, dose response (AID 2458).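 Also: H4 neuroglioblastoma cells stably carrying a luciferase reporter gene fusion.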 Type of assay: functional, cell-based.
The subject of assay [27] is BJ. Put plainly: BJ-TERT fibroblast viability loss – cell-based, RAS-independent, luminescence, dose response (AID 1933). In kind it is functional. To be noted: Homo sapiens.

Usually EC50 stands for the midpoint of the concentration-response curve. As a reminder, the AC50 is the midpoint of the concentration-response curve, whichever way the signal moves. As usually defined, the IC50 is the concentration that inhibits the measured activity by half.

Activity calls are given as the source filed them.

Sequence of Delta-type opioid receptor (P41143 whole entry): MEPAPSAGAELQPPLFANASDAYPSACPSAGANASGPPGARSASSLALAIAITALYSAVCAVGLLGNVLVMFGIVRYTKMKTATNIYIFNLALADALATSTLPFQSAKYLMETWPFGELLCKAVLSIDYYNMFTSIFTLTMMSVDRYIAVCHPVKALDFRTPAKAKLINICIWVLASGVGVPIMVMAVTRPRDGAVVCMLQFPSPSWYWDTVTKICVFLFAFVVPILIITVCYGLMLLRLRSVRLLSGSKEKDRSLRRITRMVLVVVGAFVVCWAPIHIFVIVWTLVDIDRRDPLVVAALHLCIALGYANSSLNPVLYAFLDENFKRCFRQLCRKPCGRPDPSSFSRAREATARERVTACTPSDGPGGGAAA
Sequence of 5-hydroxytryptamine receptor 5A (P47898 whole entry): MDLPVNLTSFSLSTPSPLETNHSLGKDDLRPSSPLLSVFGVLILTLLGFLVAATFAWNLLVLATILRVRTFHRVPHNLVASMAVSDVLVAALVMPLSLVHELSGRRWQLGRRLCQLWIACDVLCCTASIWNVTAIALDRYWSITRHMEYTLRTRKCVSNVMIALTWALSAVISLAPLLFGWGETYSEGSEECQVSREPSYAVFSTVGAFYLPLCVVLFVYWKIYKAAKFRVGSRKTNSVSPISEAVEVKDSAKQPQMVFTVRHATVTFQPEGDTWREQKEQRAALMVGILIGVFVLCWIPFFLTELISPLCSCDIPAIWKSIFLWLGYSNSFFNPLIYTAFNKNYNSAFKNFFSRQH
Sequence of Mu-type opioid receptor (P35372 whole entry): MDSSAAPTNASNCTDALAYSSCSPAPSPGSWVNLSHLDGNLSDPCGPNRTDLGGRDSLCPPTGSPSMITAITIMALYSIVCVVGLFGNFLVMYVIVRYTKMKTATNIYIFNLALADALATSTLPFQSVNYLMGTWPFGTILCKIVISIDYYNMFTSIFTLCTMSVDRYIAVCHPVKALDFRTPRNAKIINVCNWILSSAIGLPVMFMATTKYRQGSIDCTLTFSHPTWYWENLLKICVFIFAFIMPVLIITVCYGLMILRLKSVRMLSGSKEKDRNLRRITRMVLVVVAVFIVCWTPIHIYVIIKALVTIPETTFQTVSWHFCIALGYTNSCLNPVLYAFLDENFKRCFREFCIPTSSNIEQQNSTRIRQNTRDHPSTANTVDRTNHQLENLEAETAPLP

Regarding `O=S(=O)(c1c(Cl)cc(Br)cc1Cl)N1CCN(C(=S)NC2CC2)CC1`, the EC50 was 11.9 µM (inactive) in assay [1], > 92.5 µM (inactive) in [2] and > 92.5 µM (inactive) in [3].
On to `Brc1ccc2c(c1)-c1ccccc1C1=NCCN12`, for which the EC50 in assay [4] and in [5] was > 59.8 µM (inactive) throughout.
For the compound `O=C(N/N=C/c1cn(-c2cccs2)nc1-c1ccccc1)c1ccccc1Br`, the EC50 in assay [6] is 30.2 µM (active); in [9], 31 µM (active). Moreover, the AC50 is 23 µM (active) in assay [7] and 3.75 µM (active) in assay [8].
`Nc1ncnc2c1ccn2[C@@H]1O[C@H](CO)[C@@H](O)[C@H]1O` [TUBERCIDIN]: the 50% effective concentration (EC50) in assay [10] was 5.45 µM (inconclusive); in assay [13], < 0.1 µM (active); in assay [14], 5.04 µM (active); in [17], 0.204 µM (active); in [19] it was 4.12 µM (active); in assay [20], 0.223 µM (active). The EC50 was < 0.1 µM (active) in assay [21]; < 0.104 µM (active) in [22]; 3.06 µM (active) in assay [25]; 0.252 µM (active) in assay [26]; 2.08 µM (inconclusive) in assay [27]. For the same compound, the AC50 is 0.0912 µM (active) in assay [11]; 3.98 µM (active) in assay [16]; 0.25 µM (active) in [18]; 1.6 µM (active) in assay [23]; 2.77 µM (active) in assay [24]. Also, the IC50 is > 80 µM (inactive) in [12] and 7.83 µM (active) in assay [15].
